In US9266872B2, “2-hydroxyarylamide derivative or pharmaceutically acceptable salt thereof, preparation method thereof, and pharmaceutical composition for preventing or treating cancer containing same as active ingredient” (KOREA RESEARCH INSTITUTE OF BIOSCIENCE AND BIOTECHNOLOGY, priority 2011, dated 2016):

Molecular target: T1, TMPRSS4 serine protease (Homo sapiens, UniProt Q9NRS4)
T1 construct: TMPRSS4 serine protease domain (205th Val˜437th Leu) was cloned in pET21b/NdeI-XhoI; inferred from pET21b XhoI cloning and Ni-NTA purification) (C); made in house; host or cells: E. coli BL21 (DE3)
T1 sequence (Q9NRS4 205-437): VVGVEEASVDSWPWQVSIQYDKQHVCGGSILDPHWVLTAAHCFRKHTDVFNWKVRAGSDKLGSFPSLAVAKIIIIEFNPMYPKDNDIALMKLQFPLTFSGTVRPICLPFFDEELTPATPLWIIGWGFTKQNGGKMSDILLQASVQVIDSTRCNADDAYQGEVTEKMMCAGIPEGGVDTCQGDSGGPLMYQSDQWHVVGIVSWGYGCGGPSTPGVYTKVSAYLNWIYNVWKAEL
Experiment: Inhibitory effect on TMPRSS4 serine protease activity using peptide substrate
Assay type: biochemical
Conditions: for inhibition at 10 µM / Intracellular protease activity Inhibition % 10 uM: 10 uM compound; for inhibition at 10 µM: read-out: Intracellular protease activity Inhibition % 10 uM; for inhibition at 30 µM: read-out: Intracellular protease activity Inhibition % 30 uM; for inhibition at 100 µM: 100 uM compound, read-out: Intracellular protease activity Inhibition % 100 uM
Experimental: TMPRSS4 serine protease domain (205th Val˜437th Leu) was cloned in pET21b/NdeI-XhoI, which was introduced in E. coli BL21 (DE3). At this time, FlagX2-enterokinase cleavage site ([…]; total 15 amino acids) was inserted in N-terminal of TMPRSS4 serine protease domain as shown in FIG. 1. The forward and reverse primers for PCR used for the cloning were presented by SEQ. ID. NO: 1 and NO: 2.
The cells were cultured in 10 ml of LB containing ampicillin at 37° C. overnight. IL of LB+ampicillin was added thereto, followed by further culture until OD reached 0.6˜0.8. 0.1 mM IPTG was added thereto, followed by further culture for 16 hours. Cell pellet was obtained, purified by Ni-NTA (Qiagen), and dialyzed. TMPRSS4 serine protease (pro-form) labeled with 2 mg of 2Xflag-enterokinase cleavage site was conjugated to Ni-NTA resin (4°, overnight). Enterokinase (NEB) was treated thereto at the concentration of 0.0002%/w/w at room temperature for 5 hours. The sample was washed, eluted with 50 mM imidazole in 20 mM of sodium phosphate buffer, and then dialyzed.
The protein activity was evaluated by measuring fluorescence shown during hydrolysis of the peptide. […] Reaction was induced after adding 100 μM of the peptide substrate into reaction buffer (50 mM Tris-HCl (pH 8.0), 10 mM CaCl2, 1 μM ZnCl2). Then, fluorescence was measured at 5 minutes interval (excitation 385 nm, emission 455 nm).
Then, fluorescence (excitation 385 nm/emission 455 nm) was measured at 5 minutes interval for 150 minutes. […] Dimethylsulfoxide (DMSO) was used as the negative control.

[1] = kallikrein peptide substrate 100 μM, DMSO negative control
[2] = 30 uM compound, kallikrein peptide substrate 100 μM, DMSO negative control

inhibition at 10 µM [1] [%]	inhibition at 30 µM [2] [%]	inhibition at 100 µM [1] [%]	Compound	other results
29	74		O=C(Nc1cc(C(F)(F)F)cc(C(F)(F)F)c1)c1ccc(Cl)cc1O [Example 54, N-(3,5-bis(trifluoromethyl)phenyl)-4-chloro-2-hydroxybenzamide]	
16			Cc1nc(NC(=O)c2cc(Cl)ccc2O)sc1C [Example 72, 5-chloro-N-(4,5-dimethylthiazol-2-yl)-2-hydroxybenzamide]	
	6	39	O=C(Nc1ccc(Cl)nc1)c1cc(Cl)ccc1O [Example 45, 5-chloro-N-(6-chloropyridine-3-yl)-2-hydroxybenzamide]	
15	58		O=C(Nc1cc(Cl)cc(Cl)c1)c1cc(Cl)ccc1O [Example 61, 5-chloro-N-(3,5-dichlorophenyl)-2-hydroxybenzamide]	
33	78		Cc1cc(Cl)cc(C(=O)Nc2cc(C(F)(F)F)cc(C(F)(F)F)c2)c1O [Example 34, N-(3,5-bis(trifluoromethyl)phenyl)-5-chloro-2-hydroxy-3-methylbenzamide]	
	29	69	N#Cc1ccc(NC(=O)c2cc(Cl)ccc2O)cc1 [Example 12, 5-chloro-N-(4-cyanophenyl)-2-hydroxybenzamide]	
0	64		Cc1ccc(O)c(C(=O)Nc2cc(C(F)(F)F)cc(C(F)(F)F)c2)c1 [Example 3, N-(3,5-bis(trifluoromethyl)phenyl)-2-hydroxy-5-methylbenzamide]	
37	91		O=C(Nc1cccc(C(F)(F)F)c1)c1cc(Cl)ccc1O [Example 10, 5-chloro-N-(3-(trifluoromethyl)phenyl)-2-hydroxybenzamide]	
		100	O=C(Nc1cc(C(F)(F)F)ccc1F)c1cc(Cl)ccc1O [Example 64, 5-chloro-N-(2-fluoro-5-(trifluoromethyl)phenyl)-2-hydroxybenzamide]	Intracellular protease activity Inhibition % 10 uM [1]: 67%
	100		O=C(Nc1cc(C(F)(F)F)ccc1F)c1cc(Cl)ccc1O [Example 21, 5-chloro-N-(2-fluoro-5-(trifluoromethyl)phenyl)-2-hydroxybenzamide]	
51 to 100	84		O=C(Nc1cc(C(F)(F)F)cc(C(F)(F)F)c1)c1cc(Br)ccc1O [Example 9, N-(3,5-bis(trifluoromethyl)phenyl)-5-bromo-2-hydroxybenzamide]	Intracellular protease activity Inhibition % 10 uM [1]: 54%
	13	75	O=C(Nc1ccccc1)c1cc(Cl)ccc1O [Example 59, 5-chloro-2-hydroxy-N-phenylbenzamide]	
0	4		CC(=O)Oc1ccc(Cl)cc1C(=O)Nc1cc(C(F)(F)F)cc(C(F)(F)F)c1 [Example 57, 2-(3,5-bis(trifluoromethyl)phenylcarbamoyl)-4-chlorophenylacetate]	

Continued, compound first:

Compound	inhibition at 10 µM [1] [%]	inhibition at 30 µM [2] [%]	inhibition at 100 µM [1] [%]	other results
O=C(Nc1cc(C(F)(F)F)cc(C(F)(F)F)c1)c1cccc(Cl)c1O [Example 26, N-(3,5-bis-trifluoromethyl-phenyl)-3-chloro-2-hydroxy-benzamide]	51 to 100	93		Intracellular protease activity Inhibition % 10 uM [1]: 61%
O=C(Nc1cc(C(F)(F)F)cc(C(F)(F)F)c1)c1cnc2ccccc2c1O [Example 68, N-(3,5-bis(trifluoromethyl)phenyl)-4-hydroxyquinoline-3-carboxamide]	0	0		
O=C(Nc1cc(C(F)(F)F)cc(C(F)(F)F)c1)c1cc(Cl)ccc1OCc1ccccc1 [Example 58, 2-benzyloxy-N-(3,5-bis-trifluoromethyl-phenyl)-5-chlorobenzamide]	0	6		
O=C(Nc1ccc(Br)c(C(F)(F)F)c1)c1cc(Cl)ccc1O [Example 16, N-(4-bromo-3-(trifluoromethyl)phenyl)-5-chloro-2-hydroxybenzamine]			98	Intracellular protease activity Inhibition % 10 uM [1]: 80%; Intracellular protease activity Inhibition % 30 uM [2]: 93%
O=C(Nc1nc2c(s1)CCCC2)c1cc(Cl)ccc1O [Example 70, 5-chloro-2-hydroxy-N-(4,5,6,7-tetrahydrobenzo[d]thiazol-2-yl)benzamide]				Intracellular protease activity Inhibition % 10 uM [1]: 77%
COc1c(C(F)(F)F)cc(NC(=O)c2cc(Cl)ccc2O)cc1C(F)(F)F [Example 39, 5-chloro-2-hydroxy-N-(4-methoxy-3,5-bis-trifluoromethyl-phenyl)-benzamide]	51 to 100	80		Intracellular protease activity Inhibition % 10 uM [1]: 56%
O=C(Nc1ccnc(Cl)c1)c1cc(Cl)ccc1O [Example 47, 5-chloro-N-(2-chloropyridine-4-yl)-2-hydroxybenzamide]		35	21	
O=C(Nc1nc(-c2cccnc2)cs1)c1cc(Cl)ccc1O [Example 76, 5-chloro-2-hydroxy-N-(4-(pyridin-3-yl)thiazol-2-yl)benzamide]	30			
CC1CN(Cc2csc(NC(=O)c3cc(Cl)ccc3O)n2)CC(C)O1 (stereo not shown) [Example 73, 5-chloro-N-(4-((2,6-dimethylmorpholino)methyl)thiazol-2-yl)-2-hydroxybenzamide]				Intracellular protease activity Inhibition % 10 uM [1]: 85%
O=C(Nc1ccc(C(F)(F)F)cn1)c1cc(Cl)ccc1O [Example 41, 5-chloro-2-hydroxy-N-(5-(trifluoromethyl)pyridine-2-yl)benzamide]		25	47	
NCCc1ccc(S(=O)(=O)F)cc1 [AEBSF, reference compound]				TMPRSS4 serine protease active form activity (hydrolysis of peptide substrate) (1 mM, trypsin and kallikrein peptide substrates): inhibited
O=C(Nc1cc(C(F)(F)F)cc(C(F)(F)F)c1)c1cc(F)ccc1O [Example 14, N-(3,5-bis(trifluoromethyl)phenyl)-5-fluoro-2-hydroxybenzamide]	0	55		
O=C(Nc1cc(Cl)c(Cl)c(Cl)c1)c1cc(Cl)ccc1O [Example 66, 5-chloro-2-hydroxy-N-(3,4,5-trichloro-phenyl)benzamide]	6	23		
O=C(Nc1ccc(C(F)(F)F)cc1)c1cc(Cl)ccc1O [Example 15, 5-chloro-N-(4-(trifluoromethyl)phenyl)-2-hydroxybenzamide]	22	100		
Cn1ccc(NC(=O)c2cc(Cl)ccc2O)n1 [Example 74, 5-chloro-2-hydroxy-N-(1-methyl-1H-pyrazol-3-yl)benzamide]	14			
Cc1csc(NC(=O)c2cc(Cl)ccc2O)n1 [Example 50, 5-chloro-2-hydroxy-N-(4-methylthiazole-2-yl)benzamide]		0	67	
O=C(Nc1nccs1)c1cc(Cl)ccc1O [Example 51, 5-chloro-2-hydroxy-N-(thiazole-2-yl)benzamide]		44	90	
O=C(Nc1ccc(F)c(C(F)(F)F)c1)c1cc(Cl)ccc1O [Example 4, 5-chloro-N-(4-fluoro-3-(trifluoromethyl)phenyl)-2-hydroxybenzamide]	51 to 100	86	98	Intracellular protease activity Inhibition % 10 uM [1]: 64%
O=C(Nc1cc(C(F)(F)F)cc(C(F)(F)F)c1)c1cc(Cl)cc(Cl)c1O [Example 2, N-(3,5-bis(trifluoromethyl)phenyl)3,5-dichloro-2-hydroxybenzamide]		100		
O=C(Nc1ncc(C(F)(F)F)cc1Cl)c1cc(Cl)ccc1O [Example 46, 5-chloro-N-(3-chloro-5-(trifluoromethyl)pyridine-2-yl)-2-hydroxybenzamide]		0	0	
CC(=O)Nc1ccc(O)c(C(=O)Nc2cc(C(F)(F)F)cc(C(F)(F)F)c2)c1 [Example 35, 5-acetamido-N-(3,5-bis(trifluoromethyl)phenyl)-2-hydroxybenzamide]	0	0		
O=C(Nc1cc(C(F)(F)F)ccc1C(F)(F)F)c1cc(Cl)ccc1O [Example 18, N-(2,5-bis(trifluoromethyl)phenyl)-5-chloro-2-hydroxybenzamine]	46	54		
Cc1cc(C)cc(NC(=O)c2cc(Cl)ccc2O)c1 [Example 60, 5-chloro-N-(3,5-dimethylphenyl)-2-hydroxybenzamide]		44	56	
